# Experimental data taken from patent US8435980B2 (AbbVie Inc., priority 2009, dated 2013).
# pKi: −log10 of the molar value.
# Target: T1, Cdc7 (BEV coexpressed huCDC7/DBF4) (Homo sapiens, UniProt O00311)
# T1 construct: made in house; host or cells: BEV (baculovirus expression vector) co-expression; insect cells are implied but no cell line is named
# Test: Cdc7 enzyme inhibition assay ([33P]ATP, biotinylated peptide substrate, FlashPlate)
# Format: biochemical
# Details: Table 2; Comparative Example lacking the chloro substituent versus the chloro Example
# Method: Cdc7 (BEV coexpressed huCDC7/DBF4) is prepared internally. Cdc7 assays are conducted as follows with final concentrations as listed. […] Reactions are quenched after 1 hr by the addition of 90 μL stop buffer (50 mM EDTA, 2M NaCl). […] (Ki) for exemplary compounds.
# T1 sequence (O00311 whole entry): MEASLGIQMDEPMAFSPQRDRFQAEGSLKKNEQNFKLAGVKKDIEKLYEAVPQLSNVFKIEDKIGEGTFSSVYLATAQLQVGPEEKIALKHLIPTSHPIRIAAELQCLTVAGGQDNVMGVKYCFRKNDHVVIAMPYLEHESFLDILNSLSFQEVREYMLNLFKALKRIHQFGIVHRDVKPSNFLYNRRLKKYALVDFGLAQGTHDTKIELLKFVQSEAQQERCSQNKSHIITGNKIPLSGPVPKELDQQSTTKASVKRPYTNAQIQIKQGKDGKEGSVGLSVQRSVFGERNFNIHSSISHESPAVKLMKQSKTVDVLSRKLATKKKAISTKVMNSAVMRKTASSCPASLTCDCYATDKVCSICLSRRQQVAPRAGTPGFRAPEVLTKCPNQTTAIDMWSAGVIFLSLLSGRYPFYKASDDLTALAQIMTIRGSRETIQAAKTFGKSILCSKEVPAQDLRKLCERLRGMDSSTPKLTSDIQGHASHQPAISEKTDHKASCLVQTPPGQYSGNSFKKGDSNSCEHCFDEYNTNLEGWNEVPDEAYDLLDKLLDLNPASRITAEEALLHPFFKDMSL
# T1 sequence (Q9UBU7 whole entry partner): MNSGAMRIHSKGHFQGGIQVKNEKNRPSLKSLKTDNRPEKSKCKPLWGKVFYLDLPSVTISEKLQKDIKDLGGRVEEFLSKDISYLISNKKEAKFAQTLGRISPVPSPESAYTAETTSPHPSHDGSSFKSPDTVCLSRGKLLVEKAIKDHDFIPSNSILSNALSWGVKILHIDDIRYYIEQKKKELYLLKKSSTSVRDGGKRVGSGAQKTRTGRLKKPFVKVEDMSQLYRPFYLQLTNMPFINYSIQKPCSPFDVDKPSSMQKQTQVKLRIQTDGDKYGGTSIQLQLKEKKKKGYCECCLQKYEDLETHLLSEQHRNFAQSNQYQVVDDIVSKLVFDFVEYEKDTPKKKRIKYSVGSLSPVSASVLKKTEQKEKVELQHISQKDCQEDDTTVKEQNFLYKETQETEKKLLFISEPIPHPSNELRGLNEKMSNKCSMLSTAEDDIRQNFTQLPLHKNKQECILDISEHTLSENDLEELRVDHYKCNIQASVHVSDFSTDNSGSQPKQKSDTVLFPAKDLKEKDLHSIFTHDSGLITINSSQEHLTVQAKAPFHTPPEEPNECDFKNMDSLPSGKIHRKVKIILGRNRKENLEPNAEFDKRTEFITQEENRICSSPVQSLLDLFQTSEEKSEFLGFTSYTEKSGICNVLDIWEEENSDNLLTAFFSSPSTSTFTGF
row,SMILES,Ki ratio comparisons (Ki Comparative Example/Ki Example)
1,"c1cnc2[nH]cc(-c3ccnc(NC4CCCCC4)c3)c2c1 [Comparative Example 1, N-cyclohexyl-4-(1H-pyrrolo[2,3-b]pyridin-3-yl)pyridin-2-amine, reference compound]",10
2,"Cc1cc(-c2c[nH]c3ncccc23)cc(NC2CCCCC2)n1 [Comparative Example 2, N-cyclohexyl-6-methyl-4-(1H-pyrrolo[2,3-b]pyridin-3-yl)pyridin-2-amine, reference compound]",14
3,"Cc1cc(-c2c[nH]c3ncccc23)cc(NCc2ccccc2)n1 [Comparative Example 3, N-benzyl-6-methyl-4-(1H-pyrrolo[2,3-b]pyridin-3-yl)pyridin-2-amine, reference compound]",75
4,"Cc1cc(-c2c[nH]c3ncccc23)cc(N[C@H]2CC[C@H](O)CC2)n1 [Comparative Example 4, Trans-4-{[6-methyl-4-(1H-pyrrolo[2,3-b]pyridin-3-yl)pyridin-2-yl]amino}cyclohexanol, reference compound]",54
5,"N#Cc1cc(-c2c[nH]c3ncccc23)cc(NC2CCCCC2)n1 [Comparative Example 5, 6-(cyclohexylamino)-4-(1H-pyrrolo[2,3-b]pyridin-3-yl)pyridine-2-carbonitrile, reference compound]",9
6,"N#Cc1cc(-c2c[nH]c3ncccc23)cc(NCc2ccccc2)n1 [Comparative Example 6, 6-(benzylamino)-4-(1H-pyrrolo[2,3-b]pyridin-3-yl)pyridine-2-carbonitrile, reference compound]",5
7,"NC(=O)c1cc(-c2c[nH]c3ncccc23)cc(NCc2ccccc2)n1 [Comparative Example 7, 6-(benzylamino)-4-(1H-pyrrolo[2,3-b]pyridin-3-yl)pyridine-2-carboxamide, reference compound]",45
8,"N#Cc1cc(-c2c[nH]c3ncccc23)cc(N2CCCCC2)n1 [Comparative Example 8, 6-piperidin-1-yl-4-(1H-pyrrolo[2,3-b]pyridin-3-yl)pyridine-2-carbonitrile, reference compound]",2
9,"NC(=O)c1cc(-c2c[nH]c3ncccc23)cc(N2CCCCC2)n1 [Comparative Example 9, 6-piperidin-1-yl-4-(1H-pyrrolo[2,3-b]pyridin-3-yl)pyridine-2-carboxamide, reference compound]",84

# Same assay, conditions: Table 3; enzyme inhibition data (Ki)
row,SMILES,pKi
1,"CS(=O)(=O)N[C@@H]1CCCC[C@H]1Nc1cc(-c2c[nH]c3ncccc23)cc(Cl)n1 (relative stereo) [Example 110, N-[(trans)-2-{[6-chloro-4-(1H-pyrrolo[2,3-b]pyridin-3-yl)pyridin-2-yl]amino}cyclohexyl]methanesulfonamide]",> 8.00
2,"O=C(N[C@@H]1CCCC[C@H]1Nc1cc(-c2c[nH]c3ncccc23)cc(Cl)n1)C1CCN1 (relative stereo) [Example 120, N-[(trans)-2-{[6-chloro-4-(1H-pyrrolo[2,3-b]pyridin-3-yl)pyridin-2-yl]amino}cyclohexyl]azetidine-2-carboxamide]",> 8.00
3,"CN1CCC(C(=O)N[C@H]2CC[C@H](Nc3cc(-c4c[nH]c5ncccc45)cc(Cl)n3)CC2)C1 (relative stereo) [Example 125, N-(trans-4-{[6-chloro-4-(1H-pyrrolo[2,3-b]pyridin-3-yl)pyridin-2-yl]amino}cyclohexyl)-1-methylpyrrolidine-3-carboxamide]",> 8.00
4,"N[C@H]1CCCC[C@H]1Nc1cc(-c2c[nH]c3ncccc23)cc(Cl)n1 (relative stereo) [Example 131, (cis)-N-[6-chloro-4-(1H-pyrrolo[2,3-b]pyridin-3-yl)pyridin-2-yl]cyclohexane-1,2-diamine]",> 8.00
5,"CS(=O)(=O)N[C@@H]1CCCC[C@@H]1Nc1cc(-c2c[nH]c3ncccc23)cc(Cl)n1 (relative stereo) [Example 132, N-[(cis)-2-{[6-chloro-4-(1H-pyrrolo[2,3-b]pyridin-3-yl)pyridin-2-yl]amino}cyclohexyl]methanesulfonamide]",> 8.00
6,"CCN1CCC1C(=O)N[C@H]1CC[C@H](Nc2cc(-c3c[nH]c4ncccc34)cc(Cl)n2)CC1 (relative stereo) [Example 134, N-(trans-4-{[6-chloro-4-(1H-pyrrolo[2,3-b]pyridin-3-yl)pyridin-2-yl]amino}cyclohexyl)-1-ethylazetidine-2-carboxamide]",> 8.00
7,"O=C(N[C@H]1CC[C@H](Nc2cc(-c3c[nH]c4ncccc34)cc(Cl)n2)CC1)C1CCN1C1CCCC1 (relative stereo) [Example 136, N-(trans-4-{[6-chloro-4-(1H-pyrrolo[2,3-b]pyridin-3-yl)pyridin-2-yl]amino}cyclohexyl)-1-cyclopentylazetidine-2-carboxamide]",> 8.00
8,"CN(C)[C@@H]1CCCC[C@@H]1Nc1cc(-c2c[nH]c3ncccc23)cc(Cl)n1 (relative stereo) [Example 140, (cis)-N′-[6-chloro-4-(1H-pyrrolo[2,3-b]pyridin-3-yl)pyridin-2-yl]-N,N-dimethylcyclohexane-1,2-diamine]",> 8.00
9,"O=S(=O)(N[C@H]1CC[C@H](Nc2cc(-c3c[nH]c4ncccc34)cc(Cl)n2)CC1)C1CCNC1 (relative stereo) [Example 151, N-(trans-4-{[6-chloro-4-(1H-pyrrolo[2,3-b]pyridin-3-yl)pyridin-2-yl]amino}cyclohexyl)pyrrolidine-3-sulfonamide]",> 8.00
10,"NC1CCC(N[C@H]2CC[C@H](Nc3cc(-c4c[nH]c5ncccc45)cc(Cl)n3)CC2)CC1 (relative stereo) [Example 158, trans-N-(4-aminocyclohexyl)-N′-[6-chloro-4-(1H-pyrrolo[2,3-b]pyridin-3-yl)pyridin-2-yl]cyclohexane-1,4-diamine]",> 8.00
11,"CCN1CCC(C(=O)N[C@H]2CC[C@H](Nc3cc(-c4c[nH]c5ncc(OC)cc45)cc(Cl)n3)CC2)C1 (relative stereo) [Example 219, N-(trans-4-{[6-chloro-4-(5-methoxy-1H-pyrrolo[2,3-b]pyridin-3-yl)pyridin-2-yl]amino}cyclohexyl)-1-ethylpyrrolidine-3-carboxamide]",> 8.00
12,"CCN1CCC(C(=O)N[C@H]2CC[C@H](Nc3cc(-c4c[nH]c5ncccc45)cc(Cl)n3)CC2)C1 (relative stereo) [Example 326, N-(trans-4-{[6-chloro-4-(1H-pyrrolo[2,3-b]pyridin-3-yl)pyridin-2-yl]amino}cyclohexyl)-1-ethylpyrrolidine-3-carboxamide]",> 8.00
13,"CN1CCC[C@H]1C(=O)N[C@H]1CC[C@H](Nc2cc(-c3c[nH]c4ncccc34)cc(Cl)n2)CC1 (relative stereo) [Example 336, N-(trans-4-{[6-chloro-4-(1H-pyrrolo[2,3-b]pyridin-3-yl)pyridin-2-yl]amino}cyclohexyl)-1-methylprolinamide]",> 8.00
14,"CN1CCCCC1C(=O)N[C@H]1CC[C@H](Nc2cc(-c3c[nH]c4ncccc34)cc(Cl)n2)CC1 (relative stereo) [Example 337, N-(trans-4-{[6-chloro-4-(1H-pyrrolo[2,3-b]pyridin-3-yl)pyridin-2-yl]amino}cyclohexyl)-1-methylpiperidine-2-carboxamide]",> 8.00
15,"CN1C(=O)CC[C@H]1C(=O)N[C@H]1CC[C@H](Nc2cc(-c3c[nH]c4ncccc34)cc(Cl)n2)CC1 (relative stereo) [Example 342, N-(trans-4-{[6-chloro-4-(1H-pyrrolo[2,3-b]pyridin-3-yl)pyridin-2-yl]amino}cyclohexyl)-1-methyl-5-oxoprolinamide]",> 8.00
16,"O=C(CNC1CN2CCC1CC2)N[C@H]1CC[C@H](Nc2cc(-c3c[nH]c4ncccc34)cc(Cl)n2)CC1 (relative stereo) [Example 351, N~2~-1-azabicyclo[2.2.2]oct-3-yl-N-(trans-4-{[6-chloro-4-(1H-pyrrolo[2,3-b]pyridin-3-yl)pyridin-2-yl]amino}cyclohexyl)glycinamide]",> 8.00
17,"CC1CCC(NCC(=O)N[C@H]2CC[C@H](Nc3cc(-c4c[nH]c5ncccc45)cc(Cl)n3)CC2)CC1 (relative stereo) [Example 354, N-(trans-4-{[6-chloro-4-(1H-pyrrolo[2,3-b]pyridin-3-yl)pyridin-2-yl]amino}cyclohexyl)-N~2~-(4-methylcyclohexyl)glycinamide]",> 8.00
18,"O=C(NC1CCC(N[C@H]2CC[C@H](Nc3cc(-c4c[nH]c5ncccc45)cc(Cl)n3)CC2)CC1)OCc1ccccc1 (relative stereo) [Example 363, benzyl {4-[(trans-4-{[6-chloro-4-(1H-pyrrolo[2,3-b]pyridin-3-yl)pyridin-2-yl]amino}cyclohexyl)amino]cyclohexyl}carbamate]",> 8.00
19,"CC(=O)NC1CCC(N(C(C)=O)[C@H]2CC[C@H](Nc3cc(-c4c[nH]c5ncccc45)cc(Cl)n3)CC2)CC1 (relative stereo) [Example 365, N-[4-(acetylamino)cyclohexyl]-N-(trans-4-{[6-chloro-4-(1H-pyrrolo[2,3-b]pyridin-3-yl)pyridin-2-yl]amino}cyclohexyl)acetamide]",> 8.00
20,"CC(c1ccccc1)N1CC(C(=O)N[C@H]2CC[C@H](Nc3cc(-c4c[nH]c5ncccc45)cc(Cl)n3)CC2)C1 (relative stereo) [Example 396, N-(trans-4-{[6-chloro-4-(1H-pyrrolo[2,3-b]pyridin-3-yl)pyridin-2-yl]amino}cyclohexyl)-1-(1-phenylethyl)azetidine-3-carboxamide]",> 8.00
21,"CCN1CCC(C(=O)N[C@H]2CC[C@H](Nc3nc(Cl)cc(-c4c[nH]c5ncccc45)n3)CC2)C1 (relative stereo) [Example 462, N-(trans-4-{[4-chloro-6-(1H-pyrrolo[2,3-b]pyridin-3-yl)pyrimidin-2-yl]amino}cyclohexyl)-1-ethylpyrrolidine-3-carboxamide]",> 8.00
